Laboratory results published in US20050038113A1, “Valproic acid and derivatives for the combinatorial therapeutic treatment of human cancers and for the treatment of tumor metastasis and minimal residual disease” (G2M Cancer Drugs AG, priority 2001, published 2005).

What was measured:
[1] = tested on: HCT-15 colon cancer cells; experiment: SRB-assay, reduction in total cellular biomass; assay type: cell-based, human
Procedure: (§1) The reduction in cellular biomass was measured by SRB-assay. For this assay cells were seeded in 96 well culture dishes at densities between 3000 and 8000 cells per well. […] Cultures were fixed with cold TCA producing a final TCA concentration of 10%. After 1 hour of incubation at 4° C. the cells were washed five times with water and air dried. Fixed cells were stained for 30 minutes with 0,4% (wt/vol) Sulforhodamine B (SRB) dissolved in 1% acetic acid and washed four times with 1% acetic acid to remove unbound dye. After air drying bound dye was solubilized with 10 mM unbuffered Tris base (pH 10,5) for 5 minutes. Optical densities were read on a Titertek Multiskan Plus spectrophotometric plate reader at 550 nm. Six test wells for each dose-response were set in parallel with 12 growth control wells per cell line. A measure of the cell population density at time 0 (To; the time at which the drug was added) was also made from 12 extra reference wells of cells fixed with TCA just prior to drug addition to the test plates. Background OD of complete medium with 5% FBS fixed and stained as described above was also determined in 12 separate wells. From the unprocessed OD data from each microtiter plate the background OD measurements (i.e. OD of complete medium plus stain and OD of cells at T0) were subtracted thus giving the reduction of cellular biomass of the cells.
This was in particular obvious when lower concentrations of 5-FU were used. E.g. […] Thus, this combinatorial activity of these two drugs must be explained via a synergistic activity of this treatment.

mouse embryos = conditions: when properly dosed; cited from earlier work
[2] = tested on: PML-RAR expressing murine hematopoietic progenitors (lin-); experiment: myeloid differentiation (Mac-1, FACS) of transduced hematopoietic progenitors; assay type: cell-based; conditions: VPA 1 mM with cytokines (IL3, IL6, SCF, G-CSF, GM-CSF), 8-10 days
human endothelial cells = experiment: endothelial cell activation (anti-angiogenesis); assay type: cell-based; conditions: VPA and inhibitors of VEGF-R tyrosine kinase activity at the same time, vs individual drugs alone
Procedure: In addition, the effect of inhibitors of vascular endothelial growth factor receptor (VEGF-R) tyrosine kinase activity was tested on these cells since VEGF-R inhibitors are known to act anti-angiogenic in model systems of tumor-associated endothelial cell activation (e.g. vascular tube formation and/or endothelial cell activation).

[3] = tested on: MT450 breast cancer cells; experiment: MT450 rat breast cancer model, subcutaneous tumor growth and lung metastasis; assay type: in vivo
Procedure: MT450 cells were grown in DMEM/W10% FCS medium and tested for absence of mycoplasms just prior to injection. Cells were washed twice in PBS and suspended to a density of 5×10^6 cells per ml of PBS. 5×10^5 cells in 0.1 ml of PBS were injected into each rat. […] Rats were left to grow primary tumors for 21 days. […] The solution was sterile filtered. The compound was applied by i.p. injection. […] Two doses per day were applied. Control animals received equal amounts of a sterile isotonic sodium chloride solution.
The experiment was terminated when tumor size in one of the rats of the control group had reached the legal limit of 50 mm. Necropsy at that time was performed on all rats of the experiment to assess lung metastasis. […] Metastasis was also found in 7 out of 8 VPA-treated rats. However, size and number of metastases were much smaller compared to NaCl-treated rats. A dose finding experiment had shown that the chosen dosage protocol lead to high initial serum levels (e.g. 3.6 mM at 1 hour after i.p. injection) which rapidly dropped (e.g. 0.25 mM at 4 hours after i.p. injection) below those levels which are maintained during therapy of epilepsy in human.

[4] = tested on: DU-145 prostate cancer cells; experiment: SRB-assay, reduction in total cellular biomass; assay type: cell-based, human
Procedure: as §1
(§2) The effect on the reduction in total cellular biomass was measured by SRB-assay (see example 1 for assay and read-out procedure details).
(§3) Results using MCF-7 estrogen-dependent breast cancer cells are presented in FIG. 18 and using DU-145 prostate cancer cells in FIG. 19. […] The effect on cell growth was measured by SRB-assay as described in example 1.

[5] = tested on: MCF-7 estrogen-dependent breast cancer cells; experiment: SRB-assay, reduction in total cellular biomass; assay type: cell-based, human
Procedure: as §1, §2, §3

[6] = tested on: control cells (lin-, PINCO empty vector or uninfected); experiment: myeloid differentiation (Mac-1, FACS) of transduced hematopoietic progenitors; assay type: cell-based, Murine
Procedure: Murine hematopoietic progenitors (lin-) were transduced with a retroviral vector encoding PML-RAR, and GFP as a marker. […] Myeloid differentiation was scored by analyzing the presence of the differentiation marker Mac-1.
Murine hematopoietic progenitors were purified from the bone marrow of 129 mice on the basis of the absence of lineage differentiation markers (lin-). Lin- cells were grown for 48 hours in the presence of IL-3 (20 ng/ml), IL-6 (20 ng/ml), SCF (100 ng/ml), and then attached to non-tissue culture treated plates coated with Retronectin (Takara-Shuzo). Cells were then transduced by incubation with the supernatant from Phoenix ecotropic packaging cells (supplemented with fresh serum, and IL-3, IL-6, and SCF as above), transiently transfected with the control retroviral vector PINCO, or PINCO-PML-RAR. After 60 hours, GFP+cells were sorted by FACS, and seeded in methylcellulose plates supplemented as above, plus G-CSF (60 ng/ml) and GM-CSF (20 ng/ml). […] After 8-10 days, cells were analyzed for the presence of the myeloid differentiation marker Mac-1 by FACS. […] Uninfected cells, and cells infected with the control PINCO vector behaved identically (data not shown).
For FIG. 11 Lin- cells were transduced with the indicated vectors (control: PINCO, empty vector encoding GFP alone), and GFP+cells were sorted by FACS. […] Differentiation was assessed after 8-10 days by analysis of the myeloid differentiation marker Mac-1.

[7] = VPA in combination with 100 nM 1α,25 Dihydroxyvitamin D3, 48 hours, vs either alone

For `CCCC(CCC)C(=O)O` [VPA, 2-propylpentanoic acid], the “reduction in cellular biomass” value ([1]; 0.75 mM VPA in combination with 5-FU, 48 hours, compared to VPA or 5-FU alone) is given as “synergistic reduction in cellular biomass”, the “decrease in cellular biomass” value ([1]; 5-FU lower than 0.5 μM in combination with 0.75 mM VPA, compared to 0.75 mM VPA alone) is given as “stronger decrease in cellular biomass” and the teratogenicity (mouse embryos) is given as “teratogenic in the majority of mouse embryos”. For the same molecule, the “differentiation block imposed by PML-RAR (Mac-1)” value [2] was “almost completely reverted the differentiation block”, the “activation of endothelial cells” value (human endothelial cells) was “at least additive effect” and the “size and number of metastases compared to NaCl-treated rats” value ([3]; 1.25 mmol VPA per kg BW i.p., two doses per day) was “much smaller”. For the same molecule, the “growth of the primary tumors (tumor volume)” value ([3]; 1.25 mmol VPA per kg BW i.p., two doses per day, vs sodium chloride solution) was “delays tumor expansion”, the “rats with lung metastasis at necropsy” value ([3]; VPA-treated rats, 1.25 mmol/kg i.p. twice daily, all rats of the control group showed metastasis) was 7 out of 8 and the “reduction of cellular biomass” value ([4]; 1 mM VPA in combination with lower concentrations of cis Platinum, 48 hours) was “synergistic reduction of cellular biomass”. For the same molecule, the “reduction in cellular biomass” value [4, 7] was “at least additive reduction in cellular biomass”, the “reduction in cellular biomass” value ([5]; 0.75 mM VPA in combination with Paclitaxel, 48 hours, compared to either alone) was “clear additive reduction in cellular biomass” and the “effect of the combination treatment” value ([5]; VPA in combination with 100 nM 1α,25 Dihydroxyvitamin D3, 48 hours) was “slight synergistic effect”. For the same molecule, the “reduction in cellular biomass” value [5, 7] was “at least additive reduction in cellular biomass”, the number of colonies ([6]; VPA at higher concentrations (>3 mM), most likely induction of cell death, data not shown) was “reduction in the number of colonies” and the “number of Mac-1+ cells and number of colonies” value ([6]; VPA up to concentrations of 1 mM) was “did not cause significant changes”. The “differentiation of control cells” value ([6]; VPA with cytokines) was “did not affect differentiation”.
